Data taken from the supplement of paper PMC9663587.

How the values were obtained:
Flavopiridol [1] = compound: T1, CN1CC[C@H](c2c(O)cc(O)c3c(=O)cc(-c4ccccc4Cl)oc23)[C@H](O)C1 [Flavopiridol]; assay: increase in dead-cell fraction, 72 h; higher = more death;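 also: breast cancer cell lines in 384-well plates, stained with Hoechst plus LIVE/DEAD far red dye and imaged, cells above an LDR intensity threshold counted dead, Hoechst-negative corpses included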
LEE011/Ribociclib [2] = compound: T2, CN(C)C(=O)c1cc2cnc(Nc3ccc(N4CCNCC4)cn3)nc2n1C1CCCC1 [LEE011/Ribociclib]; assay: as above
[3] = compound: CCN1CCN(Cc2ccc(Nc3ncc(F)c(-c4cc(F)c5nc(C)n(C(C)C)c5c4)n3)nc2)CC1; assay: as above
[4] = compound: CC(=O)c1c(C)c2cnc(Nc3ccc(N4CCNCC4)cn3)nc2n(C2CCCC2)c1=O; assay: as above
Flavopiridol [5] = compound: T1, Flavopiridol; assay: GR value, 72 h; higher = faster growth (1 = untreated, <0 = killing);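 also: breast cancer and non-malignant breast epithelial lines, nine half-log doses, viable cells counted by Hoechst and LIVE/DEAD dye imaging versus time-zero plates and DMSO controls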
LEE011/Ribociclib [6] = compound: T2, LEE011/Ribociclib; assay: as above
[7] = compound: CCN1CCN(Cc2ccc(Nc3ncc(F)c(-c4cc(F)c5nc(C)n(C(C)C)c5c4)n3)nc2)CC1; assay: as above
THZ1 = compound: CN(C)C/C=C/C(=O)Nc1ccc(C(=O)Nc2cccc(Nc3ncc(Cl)c(-c4c[nH]c5ccccc45)n3)c2)cc1 [THZ1]; assay: as above
[8] = compound: CC(=O)c1c(C)c2cnc(Nc3ccc(N4CCNCC4)cn3)nc2n(C2CCCC2)c1=O; assay: as above
BSJ-03-123 = compound: CC(=O)c1c(C)c2cnc(Nc3ccc(N4CCN(CCOCCOCCOCCNC(=O)COc5cccc6c5C(=O)N(C5CCC(=O)NC5=O)C6=O)CC4)cn3)nc2n(C2CCCC2)c1=O [BSJ-03-123]; assay: as above
Neratinib/HKI272 = compound: CCOc1cc2ncc(C#N)c(Nc3ccc(OCc4ccccn4)c(Cl)c3)c2cc1NC(=O)/C=C/CN(C)C [Neratinib/HKI272]; assay: as above
[9] = compound: CCc1cnn2c(NCc3ccc[n+]([O-])c3)cc(N3CCCC[C@H]3CCO)nc12; assay: as above

MCF12A
increase in dead-cell fraction (Flavopiridol [1]; 0.0001 µM): 0.0046
increase in dead-cell fraction (Flavopiridol [1]; 0.0003162 µM): 0.0087
increase in dead-cell fraction (Flavopiridol [1]; 0.001 µM): 0.0086
increase in dead-cell fraction (Flavopiridol [1]; 0.003162 µM): 0.0003
increase in dead-cell fraction (Flavopiridol [1]; 0.01 µM): -0.0016
increase in dead-cell fraction (Flavopiridol [1]; 0.03162 µM): 0.0044
increase in dead-cell fraction (Flavopiridol [1]; 0.1 µM): 0.0096
increase in dead-cell fraction (Flavopiridol [1]; 0.3162 µM): 0.0302
increase in dead-cell fraction (Flavopiridol [1]; 1 µM): 0.479
increase in dead-cell fraction (LEE011/Ribociclib [2]; 0.001 µM): 0.0031
increase in dead-cell fraction (LEE011/Ribociclib [2]; 0.003162 µM): -0.0078
increase in dead-cell fraction (LEE011/Ribociclib [2]; 0.01 µM): 0.0001
increase in dead-cell fraction (LEE011/Ribociclib [2]; 0.03162 µM): 0.0156
increase in dead-cell fraction (LEE011/Ribociclib [2]; 0.1 µM): 0.002
increase in dead-cell fraction (LEE011/Ribociclib [2]; 0.3162 µM): 0.0029
increase in dead-cell fraction (LEE011/Ribociclib [2]; 1 µM): 0.0076
increase in dead-cell fraction (LEE011/Ribociclib [2]; 3.162 µM): 0.0018
increase in dead-cell fraction (LEE011/Ribociclib [2]; 10 µM): 0.0126
increase in dead-cell fraction ([3]; 0.001 µM): -0.003
increase in dead-cell fraction ([3]; 0.003162 µM): 0.0003
increase in dead-cell fraction ([3]; 0.01 µM): -0.0021
increase in dead-cell fraction ([3]; 0.03162 µM): 0.0015
increase in dead-cell fraction ([3]; 0.1 µM): 0.006
increase in dead-cell fraction ([3]; 0.3162 µM): 0.0113
increase in dead-cell fraction ([3]; 1 µM): 0.0148
increase in dead-cell fraction ([3]; 3.162 µM): 0.0231
increase in dead-cell fraction ([3]; 10 µM): 0.0492
increase in dead-cell fraction ([4]; 0.0003162 µM): -0.0052
increase in dead-cell fraction ([4]; 0.001 µM): -0.0036
increase in dead-cell fraction ([4]; 0.003162 µM): -0.0043
increase in dead-cell fraction ([4]; 0.01 µM): -0.0067
increase in dead-cell fraction ([4]; 0.03162 µM): -0.005
increase in dead-cell fraction ([4]; 0.1 µM): -0.003
increase in dead-cell fraction ([4]; 0.3162 µM): 0.0031
increase in dead-cell fraction ([4]; 1 µM): 0.006
increase in dead-cell fraction ([4]; 3.162 µM): 0.0205
GR value (Flavopiridol [5]; 0.0001 µM): 1.04 GR
GR value (Flavopiridol [5]; 0.0003162 µM): 0.977 GR
GR value (Flavopiridol [5]; 0.001 µM): 0.895 GR
GR value (Flavopiridol [5]; 0.003162 µM): 0.982 GR
GR value (Flavopiridol [5]; 0.01 µM): 0.961 GR
GR value (Flavopiridol [5]; 0.03162 µM): 0.949 GR
GR value (Flavopiridol [5]; 0.1 µM): 0.856 GR
GR value (Flavopiridol [5]; 0.3162 µM): 0.621 GR
GR value (Flavopiridol [5]; 1 µM): -0.121 GR
GR value (LEE011/Ribociclib [6]; 0.001 µM): 0.967 GR
GR value (LEE011/Ribociclib [6]; 0.003162 µM): 0.953 GR
GR value (LEE011/Ribociclib [6]; 0.01 µM): 0.948 GR
GR value (LEE011/Ribociclib [6]; 0.03162 µM): 0.927 GR
GR value (LEE011/Ribociclib [6]; 0.1 µM): 0.984 GR
GR value (LEE011/Ribociclib [6]; 0.3162 µM): 0.897 GR
GR value (LEE011/Ribociclib [6]; 1 µM): 0.867 GR
GR value (LEE011/Ribociclib [6]; 3.162 µM): 0.914 GR
GR value (LEE011/Ribociclib [6]; 10 µM): 0.792 GR
GR value ([7]; 0.001 µM): 0.987 GR
GR value ([7]; 0.003162 µM): 0.945 GR
GR value ([7]; 0.01 µM): 0.955 GR
GR value ([7]; 0.03162 µM): 0.943 GR
GR value ([7]; 0.1 µM): 0.872 GR
GR value ([7]; 0.3162 µM): 0.822 GR
GR value ([7]; 1 µM): 0.727 GR
GR value ([7]; 3.162 µM): 0.616 GR
GR value ([7]; 10 µM): 0.386 GR
GR value (THZ1; 0.0001 µM): 0.997 GR
GR value (THZ1; 0.0003162 µM): 0.989 GR
GR value (THZ1; 0.001 µM): 1 GR
GR value (THZ1; 0.003162 µM): 0.958 GR
GR value (THZ1; 0.01 µM): 0.984 GR
GR value (THZ1; 0.03162 µM): 0.851 GR
GR value (THZ1; 0.1 µM): 0.569 GR
GR value (THZ1; 0.3162 µM): 0.338 GR
GR value (THZ1; 1 µM): -0.312 GR
GR value ([8]; 0.0003162 µM): 1.04 GR
GR value ([8]; 0.001 µM): 1.03 GR
GR value ([8]; 0.003162 µM): 1.02 GR
GR value ([8]; 0.01 µM): 0.974 GR
GR value ([8]; 0.03162 µM): 0.921 GR
GR value ([8]; 0.1 µM): 0.889 GR
GR value ([8]; 0.3162 µM): 0.912 GR
GR value ([8]; 1 µM): 0.758 GR
GR value ([8]; 3.162 µM): 0.667 GR
GR value (BSJ-03-123; 0.001 µM): 0.975 GR
GR value (BSJ-03-123; 0.003162 µM): 0.912 GR
GR value (BSJ-03-123; 0.01 µM): 0.971 GR
GR value (BSJ-03-123; 0.03162 µM): 0.952 GR
GR value (BSJ-03-123; 0.1 µM): 0.98 GR
GR value (BSJ-03-123; 0.3162 µM): 0.942 GR
GR value (BSJ-03-123; 1 µM): 0.883 GR
GR value (BSJ-03-123; 3.162 µM): 0.753 GR
GR value (BSJ-03-123; 10 µM): 0.126 GR
GR value (Neratinib/HKI272; 0.0003162 µM): 1.07 GR
GR value (Neratinib/HKI272; 0.001 µM): 0.998 GR
GR value (Neratinib/HKI272; 0.003162 µM): 1.01 GR
GR value (Neratinib/HKI272; 0.01 µM): 1.04 GR
GR value (Neratinib/HKI272; 0.03162 µM): 1.03 GR
GR value (Neratinib/HKI272; 0.1 µM): 0.893 GR
GR value (Neratinib/HKI272; 0.3162 µM): 0.546 GR
GR value (Neratinib/HKI272; 1 µM): 0.336 GR
GR value (Neratinib/HKI272; 3.162 µM): 0.0907 GR
GR value ([9]; 0.0001 µM): 1.03 GR
GR value ([9]; 0.0003162 µM): 0.99 GR
GR value ([9]; 0.001 µM): 1.03 GR
GR value ([9]; 0.003162 µM): 1.03 GR
GR value ([9]; 0.01 µM): 1.08 GR
GR value ([9]; 0.03162 µM): 0.685 GR
GR value ([9]; 0.1 µM): -0.289 GR
GR value ([9]; 1 µM): -0.327 GR
